The target of this experiment is IvoA (Aspergillus nidulans, UniProt C8V7P4). Put plainly: chiral HPLC of D-tryptophan formation, steady-state kinetics. The settings on record: substrate inhibition; ATP-dependent stereoinversion, apparent constant. The experiment is classed as biochemical.
Sequence of IvoA (C8V7P4 whole entry): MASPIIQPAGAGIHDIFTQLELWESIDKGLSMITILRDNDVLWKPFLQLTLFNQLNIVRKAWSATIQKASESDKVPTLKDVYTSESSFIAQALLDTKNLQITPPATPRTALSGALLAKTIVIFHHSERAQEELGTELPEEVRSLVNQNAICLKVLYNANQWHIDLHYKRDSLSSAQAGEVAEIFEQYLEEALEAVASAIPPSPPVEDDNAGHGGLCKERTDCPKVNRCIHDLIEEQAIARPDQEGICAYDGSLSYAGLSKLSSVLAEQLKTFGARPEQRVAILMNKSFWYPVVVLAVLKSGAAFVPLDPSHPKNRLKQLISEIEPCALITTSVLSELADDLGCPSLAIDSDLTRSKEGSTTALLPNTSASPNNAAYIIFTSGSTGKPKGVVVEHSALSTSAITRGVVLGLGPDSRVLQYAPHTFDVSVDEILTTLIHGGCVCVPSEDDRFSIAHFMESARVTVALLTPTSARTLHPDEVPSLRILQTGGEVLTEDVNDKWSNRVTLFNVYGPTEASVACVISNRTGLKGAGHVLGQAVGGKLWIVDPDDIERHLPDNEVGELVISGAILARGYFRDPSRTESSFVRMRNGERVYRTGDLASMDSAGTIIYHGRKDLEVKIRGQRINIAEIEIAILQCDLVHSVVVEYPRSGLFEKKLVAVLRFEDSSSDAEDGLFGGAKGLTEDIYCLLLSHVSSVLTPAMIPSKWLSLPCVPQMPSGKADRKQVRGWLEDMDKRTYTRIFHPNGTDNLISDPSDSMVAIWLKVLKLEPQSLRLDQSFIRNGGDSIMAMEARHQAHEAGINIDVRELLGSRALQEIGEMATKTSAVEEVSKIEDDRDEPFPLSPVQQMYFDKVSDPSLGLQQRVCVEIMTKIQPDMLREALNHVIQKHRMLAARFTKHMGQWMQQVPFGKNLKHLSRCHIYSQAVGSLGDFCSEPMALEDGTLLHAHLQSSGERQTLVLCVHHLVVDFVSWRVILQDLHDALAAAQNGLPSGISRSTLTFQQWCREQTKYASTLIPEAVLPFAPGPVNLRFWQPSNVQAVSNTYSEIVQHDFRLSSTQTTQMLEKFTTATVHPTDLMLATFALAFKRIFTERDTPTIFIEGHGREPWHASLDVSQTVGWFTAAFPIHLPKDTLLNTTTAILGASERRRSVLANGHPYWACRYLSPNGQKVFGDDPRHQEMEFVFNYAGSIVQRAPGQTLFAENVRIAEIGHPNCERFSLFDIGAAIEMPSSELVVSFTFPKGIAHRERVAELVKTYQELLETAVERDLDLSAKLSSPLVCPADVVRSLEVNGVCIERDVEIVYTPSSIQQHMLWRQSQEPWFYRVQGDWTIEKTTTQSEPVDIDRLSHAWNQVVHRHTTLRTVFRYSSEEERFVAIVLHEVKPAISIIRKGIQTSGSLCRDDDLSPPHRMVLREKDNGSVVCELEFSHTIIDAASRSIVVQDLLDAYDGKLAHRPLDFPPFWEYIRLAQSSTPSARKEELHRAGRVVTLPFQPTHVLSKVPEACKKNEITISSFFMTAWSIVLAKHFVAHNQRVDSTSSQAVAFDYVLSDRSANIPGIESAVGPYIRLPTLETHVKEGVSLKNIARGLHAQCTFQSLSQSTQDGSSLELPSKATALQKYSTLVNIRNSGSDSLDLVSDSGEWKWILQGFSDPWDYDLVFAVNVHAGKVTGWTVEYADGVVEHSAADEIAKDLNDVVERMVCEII

Consider `N[C@@H](Cc1c[nH]c2ccccc12)C(=O)O` [L-tryptophan], for which the Ki app worked out at 4 ± 1 mM.

Source of the values: publication PMC6927398 (Journal of the American Chemical Society, 2019).
